What all share (format): cell-based
The subject of experiment [1] is Escherichia coli ATCC 259922 (strain EC10). As to the kind of experiment: E-test minimum inhibitory concentration, sensitive strain EC10. As for the experimental part:
The sensitive strain is of the Escherichia coli species with the ATCC number of 259922. In the continuation of the description, the sensitive strain is noted as EC10. The minimum inhibitory concentration of the strain EC10 amounts to 1.0 μg/ml. In microbiology, the minimum inhibitory concentration (also noted with the acronym MIC) is the lowest concentration of antimicrobial agent which inhibits visible growth of an organism after one night of incubation. The value of 1.0 μg/ml for the minimum inhibitory concentration was obtained by conducting an E-test®. The principle of the E-test® is based on the combination of both concepts: Dilution and diffusion. The system E-test® comprises a non-porous plastic strip calibrated by a pre-established gradient of antibiotic concentration covering 15 dilutions for determining the MIC in μg/ml of a strain tested in a gelose medium.

Experiment [2] has as its system Escherichia coli strain EC10. As to the kind of experiment: Microcolony growth and diffraction patterns on MH2 agar with gentamycin disc gradient, strain EC10 (first and third experiments). The source says:
The solid substrate 16 is a MH2 agar medium. Depending on the cases, the solid substrate 16 includes an antibiotic with increasing concentration when one moves away from the center of the Petri dish. For example, such a gradient is obtained by depositing a disc impregnated with 30 micrograms (μg) of antibiotics. The disc, as an illustration, is a disc with a diameter of 6.5 mm, the reference of which is 66548 in the Biorad Corporation. When the disc is deposited at the surface of the substrate 16, an antibiotic concentration gradient is established, in the substrate 16, between the disc and the periphery of the substrate 16. In each case, the sample 12 to be studied is prepared according to the following procedure. At least one cell of the strain to be studied is cultivated on a trypticase soya gelose medium (often called TSA for <<Tryptic Soy Agar>>) for at least 24 hours. A suspension of 5 milliliters (ml) comprising water and an amount of cells of the strain such that the turbidity of the solution is equal to 0.5 McF (McFarland standard), is then prepared. The obtained suspension is diluted to 1/1000th in water in a single step. In the relevant experiments, […] are poured into […]. A volume of 70 μl of the thereby obtained diluted suspension is then spread out by means of a rake on the solid MH2 agar substrate 16. Such a volume corresponds to the spreading of approximately 1,000 to 1,500 colonies on the solid substrate 16. In the case when the experiment is conducted with a solid substrate 16 comprising the antibiotic gradient, the disc is applied immediately after the spreading step. The whole of the sample 12 is then incubated for six hours at a temperature of 37° C. (Celsius). After these six hours, the observation system 10 is used for applying a method for observing the cells of the sample 12. For the first experiment, the studied organisms belong to the EC10 strain and the solid substrate 16 comprises a gentamycin gradient. A first colony of cells of the EC10 strain of the sample 12 is illuminated with the laser beam emitted by the laser source 20. The center of this colony is found at a distance of 13.5 millimeters (mm) from the center of the disc, in an area with low gentamycin concentration, since it is sufficiently far from the disc. For the third experiment, a large number of diffraction patterns is acquired (about 100) for solid substrates 16 with and without gentamycin. The studied organism is a cell from the EC10 strain.

Experiment [3] has as its system Escherichia coli strain EC21. As to the kind of experiment: Microcolony growth and diffraction patterns on MH2 agar with gentamycin disc gradient, strain EC21 (second experiment). The source says:
The solid substrate 16 is a MH2 agar medium. Depending on the cases, the solid substrate 16 includes an antibiotic with increasing concentration when one moves away from the center of the Petri dish. For example, such a gradient is obtained by depositing a disc impregnated with 30 micrograms (μg) of antibiotics. The disc, as an illustration, is a disc with a diameter of 6.5 mm, the reference of which is 66548 in the Biorad Corporation. When the disc is deposited at the surface of the substrate 16, an antibiotic concentration gradient is established, in the substrate 16, between the disc and the periphery of the substrate 16. In each case, the sample 12 to be studied is prepared according to the following procedure. At least one cell of the strain to be studied is cultivated on a trypticase soya gelose medium (often called TSA for <<Tryptic Soy Agar>>) for at least 24 hours. A suspension of 5 milliliters (ml) comprising water and an amount of cells of the strain such that the turbidity of the solution is equal to 0.5 McF (McFarland standard), is then prepared. The obtained suspension is diluted to 1/1000th in water in a single step. In the relevant experiments, […] are poured into […]. A volume of 70 μl of the thereby obtained diluted suspension is then spread out by means of a rake on the solid MH2 agar substrate 16. Such a volume corresponds to the spreading of approximately 1,000 to 1,500 colonies on the solid substrate 16. In the case when the experiment is conducted with a solid substrate 16 comprising the antibiotic gradient, the disc is applied immediately after the spreading step. The whole of the sample 12 is then incubated for six hours at a temperature of 37° C. (Celsius). After these six hours, the observation system 10 is used for applying a method for observing the cells of the sample 12. For the second experiment, the same experiment is conducted as the first experiment, by replacing the cells of the strain EC10 with cells of the strain EC21. […]

Experiment [4] has as its system Escherichia coli ATCC 35421 (strain EC21). As to the kind of experiment: E-test minimum inhibitory concentration, resistant strain EC21. The source says: The principle of the E-test® is based on the combination of both concepts: Dilution and diffusion. The system E-test® comprises a non-porous plastic strip calibrated by a pre-established gradient of antibiotic concentration covering 15 dilutions for determining the MIC in μg/ml of a strain tested in a gelose medium.
The resistant strain is of the Escherichia coli species of ATCC number 35421. In the continuation of the description, the resistant strain is noted as EC21.
This measurement was obtained by conducting an E-test®.

Data on one substance can be found in patent publication US11022550B2, “Method for observing organisms and associated system” (Commissariat à l'énergie atomique et aux énergies …, priority 2013, dated 2021).

As for gentamycin, the “minimum inhibitory concentration (MIC)” value in experiment [1] was 1.0 µg/mL; in experiment [4] it was “greater than 256 μg/ml”. Further, the “maximum size of colony in direct space” value in experiment [2] (5.0 mm from center of 30 μg disc, 6 h incubation at 37° C.) was “about 15 μm”; in experiment [2] (8.3 mm from center of 30 μg disc, 6 h incubation at 37° C.) it was “about 30 μm”; in experiment [2] (9.1 mm from center of 30 μg disc, 6 h incubation at 37° C.), “about 50 μm”. Further, the “colony diameter in direct space” value in experiment [2] (13.5 mm from center of 30 μg disc, 6 h incubation at 37° C.) was “about 60 μm”. Besides, in experiment [2] (about 100 diffraction patterns, with and without gentamycin, first main component smaller at larger concentration), the “sensitivity of organism from main component analysis of diffraction patterns” value was “sensitive”. The “maximum extension of each observed colony” value in experiment [3] (7.29, 6.63, 5.53 and 4.37 mm from center of 30 μg disc, 6 h incubation at 37° C.) is around 90 μm. Moreover, the “sensitivity of organism from comparison of diffraction patterns” value in experiment [3] (diffraction patterns substantially identical at increasing gentamycin concentration) is reported as “resistant”. In experiment [3] (gentamycin gradient on MH2 agar), the “effect on growth of the organisms” value is on record as “no effect on the growth”.
